Patent publication US8802597B2, “Herbicidal pyrimidines” (E I du Pont de Nemours and Company, priority 2003, dated 2014)
Where two headings read alike, the source gives them in different places.

Experiments:
Assay in all cases: Test C pre/postemergence
Format in all cases: in vivo
[1] = system: yellow nutsedge (Cyperus esculentus); details: Cyperus; for pest or weed control at 62 g/ha: 62 g ai/ha; for pest or weed control at 125 g/ha: 125 g ai/ha; for pest or weed control at 250 g/ha: 250 g ai/ha; for pest or weed control at 500 g/ha: 500 g ai/ha
In short: (§1)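 Applications: preemergence onto seeded soil and postemergence onto 1- to 4-leaf seedlings, compound carried in non-phytotoxic solvent plus surfactant. Kept in greenhouse 12 to 14 days. Scored visually relative to untreated controls, 0 (no effect) to 100 (complete control).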

[2] = system: crabgrass (Digitaria sanguinalis); details: Digitaria sanguinalis; for pest or weed control at 62 g/ha: 62 g ai/ha; for pest or weed control at 125 g/ha: 125 g ai/ha; for pest or weed control at 250 g/ha: 250 g ai/ha; for pest or weed control at 500 g/ha: 500 g ai/ha
In short: as §1

[3] = system: velvetleaf (Abutilon theophrasti); details: Abutilon theophrasti; for pest or weed control at 62 g/ha: 62 g ai/ha; for pest or weed control at 125 g/ha: 125 g ai/ha; for pest or weed control at 250 g/ha: 250 g ai/ha; for pest or weed control at 500 g/ha: 500 g ai/ha
In short: as §1

[4] = system: common (oilseed) sunflower (Helianthus annuus); details: Helianthus annuus, pre-emergence, Preemergence, read-out: Plant response rating, Sunflower
In short: as §1

[5] = system: pigweed (Amaranthus retroflexus); details: Amaranthus retroflexus; for pest or weed control at 62 g/ha: 62 g ai/ha; for pest or weed control at 125 g/ha: 125 g ai/ha; for pest or weed control at 250 g/ha: 250 g ai/ha; for pest or weed control at 500 g/ha: 500 g ai/ha
In short: as §1

[6] = system: giant foxtail (Setaria faberii); details: Setaria faberi; for pest or weed control at 125 g/ha: 125 g ai/ha; for pest or weed control at 500 g/ha: 500 g ai/ha; for pest or weed control at 62 g/ha: 62 g ai/ha; for pest or weed control at 250 g/ha: 250 g ai/ha
In short: as §1

[7] = system: morningglory (Ipomoea coccinea); details: Ipomoea, post-emergence, Postemergence, scale 0 to 100 (0 no effect, 100 complete control), read-out: Morningglory plant response rating
In short: as §1

[8] = post-emergence, Postemergence, scale 0 to 100 (0 no effect, 100 complete control), read-out: Nutsedge, Yellow plant response rating
[9] = post-emergence, Postemergence, scale 0 to 100, read-out: Plant response rating, Nutsedge, Yellow
[10] = pre-emergence, Preemergence, scale 0 to 100, read-out: Plant response rating, Nutsedge, Yellow
[11] = post-emergence, Postemergence, scale 0 to 100 (0 no effect, 100 complete control), read-out: Crabgrass plant response rating
[12] = post-emergence, Postemergence, scale 0 to 100, read-out: Plant response rating, Crabgrass
[13] = pre-emergence, Preemergence, scale 0 to 100, read-out: Plant response rating, Crabgrass
[14] = post-emergence, Postemergence, scale 0 to 100 (0 no effect, 100 complete control), read-out: Velvetleaf plant response rating
[15] = post-emergence, Postemergence, scale 0 to 100, read-out: Plant response rating, Velvetleaf
[16] = pre-emergence, Preemergence, scale 0 to 100, read-out: Plant response rating, Velvetleaf
[17] = post-emergence, Postemergence, scale 0 to 100 (0 no effect, 100 complete control), read-out: Pigweed plant response rating
[18] = post-emergence, Postemergence, scale 0 to 100, read-out: Plant response rating, Pigweed
[19] = pre-emergence, Preemergence, scale 0 to 100, read-out: Plant response rating, Pigweed
[20] = post-emergence, Postemergence, scale 0 to 100 (0 no effect, 100 complete control), read-out: Foxtail, Giant plant response rating
[21] = post-emergence, Postemergence, scale 0 to 100, read-out: Plant response rating, Foxtail, Giant
[22] = pre-emergence, Preemergence, scale 0 to 100, read-out: Plant response rating, Foxtail, Giant

Compound `CNc1nc(C2CC2)nc(C(=O)OC)c1Br` [Compound 5] has a pest or weed control at 62 g/ha [1, 8] of 0%, a pest or weed control at 125 g/ha [1, 8] of 0% and a pest or weed control at 250 g/ha [1, 9] of 0%. For the same compound, the pest or weed control at 500 g/ha [1, 9] was 0%, the pest or weed control at 62 g/ha ([1]; pre-emergence, Preemergence, scale 0 to 100, 0 no effect, 100 complete control, read-out: Plant response rating, Nutsedge, Yellow) was 0% and the pest or weed control at 125 g/ha [1, 10] was 0%. The pest or weed control at 250 g/ha [1, 10] was 0%, the pest or weed control at 500 g/ha [1, 10] was 0% and the pest or weed control at 62 g/ha [2, 11] was 40%. It also gave a pest or weed control at 125 g/ha [2, 11] of 50%, a pest or weed control at 250 g/ha [2, 12] of 70% and a pest or weed control at 500 g/ha [2, 12] of 80%. It also gave a pest or weed control at 62 g/ha ([2]; pre-emergence, Preemergence, scale 0 to 100, 0 no effect, 100 complete control, read-out: Plant response rating, Crabgrass) of 0%, a pest or weed control at 125 g/ha [2, 13] of 0% and a pest or weed control at 250 g/ha [2, 13] of 20%. For the same compound, the pest or weed control at 500 g/ha [2, 13] was 60%, the pest or weed control at 62 g/ha [3, 14] was 55% and the pest or weed control at 125 g/ha [3, 14] was 90%. It also gave a pest or weed control at 250 g/ha [3, 15] of 90%, a pest or weed control at 500 g/ha [3, 15] of 95% and a pest or weed control at 62 g/ha ([3]; pre-emergence, Preemergence, scale 0 to 100, 0 no effect, 100 complete control, read-out: Plant response rating, Velvetleaf) of 85%. The pest or weed control at 125 g/ha [3, 16] was 85%, the pest or weed control at 250 g/ha [3, 16] was 90% and the pest or weed control at 500 g/ha [3, 16] was 90%. The pest or weed control at 62 g/ha ([4]; 62 g ai/ha, scale 0 to 100, 0 no effect, 100 complete control) was 60%, the pest or weed control at 125 g/ha ([4]; 125 g ai/ha, scale 0 to 100) was 90% and the pest or weed control at 250 g/ha ([4]; 250 g ai/ha, scale 0 to 100) was 100%. It also gave a pest or weed control at 500 g/ha ([4]; 500 g ai/ha, scale 0 to 100) of 100%, a pest or weed control at 62 g/ha [5, 17] of 85% and a pest or weed control at 125 g/ha [5, 17] of 90%. The pest or weed control at 250 g/ha [5, 18] was 90%, the pest or weed control at 500 g/ha [5, 18] was 100% and the pest or weed control at 62 g/ha ([5]; pre-emergence, Preemergence, scale 0 to 100, 0 no effect, 100 complete control, read-out: Plant response rating, Pigweed) was 60%. For the same compound, the pest or weed control at 125 g/ha [5, 19] was 90%, the pest or weed control at 250 g/ha [5, 19] was 100% and the pest or weed control at 500 g/ha [5, 19] was 100%. The pest or weed control at 125 g/ha [6, 20] was 30%, the pest or weed control at 500 g/ha [6, 21] was 60% and the pest or weed control at 62 g/ha [6, 20] was 20%. The pest or weed control at 250 g/ha [6, 21] was 50%, the pest or weed control at 62 g/ha ([6]; pre-emergence, Preemergence, scale 0 to 100, 0 no effect, 100 complete control, read-out: Plant response rating, Foxtail, Giant) was 0% and the pest or weed control at 125 g/ha [6, 22] was 0%. The pest or weed control at 250 g/ha [6, 22] was 10%, the pest or weed control at 500 g/ha [6, 22] was 60% and the pest or weed control at 62 g/ha ([7]; 62 g ai/ha) was 95%. The pest or weed control at 125 g/ha ([7]; 125 g ai/ha) was 95%.
